Source: ChEMBL document CHEMBL3046470, “Design, synthesis, anti-inflammatory, analgesic screening, and molecular docking of some novel 2-pyridyl (3H)-quinazolin-4-one derivatives” (2013)
The source made the active and inactive calls. No cut-off for these calls is given here.

How the values were obtained:
Rattus norvegicus [1] = experiment: Anti-inflammatory activity against Rattus norvegicus Albino Sprague-Dawley (rat) assessed as inhibition of carrageenan-induced paw edema at 50 mg/kg, ip administered 30 min prior to carrageenan injection measured after 4 hr by plethysmometer analysis; assay type: functional, organism-based; design: dose 50 mg/kg
Rattus norvegicus [2] = experiment: Anti-inflammatory activity against Rattus norvegicus albino Sprague-Dawley (rat) assessed as inhibition of carrageenan-induced paw edema at 50 mg/kg, ip administered 30 min prior to carrageenan injection measured after 3 hr by plethysmometer analysis; assay type: functional, organism-based; design: dose 50 mg/kg
Rattus norvegicus [3] = experiment: Anti-inflammatory activity against Rattus norvegicus Albino Sprague-Dawley (rat) assessed as inhibition of carrageenan-induced paw edema at 50 mg/kg, ip administered 30 min prior to carrageenan injection measured after 2 hr by plethysmometer analysis; assay type: functional; conditions: for inhibition in vivo at 50 mg/kg: route intraperitoneal
Rattus norvegicus [4] = experiment: Anti-inflammatory activity against Rattus norvegicus Albino Sprague-Dawley (rat) assessed as inhibition of carrageenan-induced paw edema at 50 mg/kg, ip administered 30 min prior to carrageenan injection measured after 1 hr by plethysmometer analysis; assay type: functional; conditions: for inhibition in vivo at 50 mg/kg: route intraperitoneal
Rattus norvegicus [5] = experiment: Anti-inflammatory activity against Rattus norvegicus Albino Sprague-Dawley (rat) assessed as inhibition of carrageenan-induced paw edema at 18 mg/kg, ip administered 30 min prior to carrageenan injection measured after 1 hr by plethysmometer analysis; assay type: functional; conditions: route intraperitoneal
Mus musculus [6] = experiment: Analgesic activity in Mus musculus Swiss (mouse) assessed as inhibition of acetic acid-induced writhing at 50 mg/kg, sc administered 1 hr prior to acetic acid injection measured after 5 min for 30 min; assay type: functional; conditions: route subcutaneous
Mus musculus [7] = experiment: Analgesic activity in Mus musculus Swiss (mouse) assessed as inhibition of acetic acid-induced writhing administered 1 hr prior to acetic acid injection measured after 5 min for 30 min; assay type: functional; conditions: read-out: PD50
Rattus norvegicus [8] = experiment: Anti-inflammatory activity against Rattus norvegicus Albino Sprague-Dawley (rat) assessed as inhibition of carrageenan-induced paw edema administered 30 min prior to carrageenan injection measured after 4 hr by plethysmometer analysis; assay type: functional

SMILES | inhibition (Rattus norvegicus [1]) | inhibition (Rattus norvegicus [2]) | inhibition (Rattus norvegicus [3]) | inhibition in vivo at 50 mg/kg (Rattus norvegicus [4]) | inhibition in vivo at 18 mg/kg (Rattus norvegicus [5]) | inhibition in vivo at 50 mg/kg (Mus musculus [6]) | ED50 (Mus musculus [7]) | inhibition in vivo at 50 mg/kg (Rattus norvegicus [3]) | inhibition (Rattus norvegicus [4]) | ED50 (Rattus norvegicus [8])
O=C(/C=C/c1ccc(Cl)cc1)c1ccc(-n2c(-c3ccncc3)nc3ccc(Br)cc3c2=O)cc1 | Active | Active | Active | 73.8% |  |  |  |  |  | 
COc1ccc2c(c1)c(CC(=O)O)c(C)n2C(=O)c1ccc(Cl)cc1 [INDOMETHACIN] |  |  |  |  | 62.9% |  |  |  |  | 
COc1ccc(C2CC(c3ccc(-n4c(-c5ccncc5)nc5ccc(Br)cc5c4=O)cc3)=NN2C(C)=O)cc1 (centres undefined) | Active | Active | Active | 64.5% |  |  |  |  |  | 
O=C1N=C(c2ccc(-n3c(-c4ccncc4)nc4ccc(Br)cc4c3=O)cc2)CC(c2ccc(Cl)cc2)N1 (centres undefined) | Active | Active | Active | 62.3% |  | 75.4% |  |  |  | 
O=c1c2cc(Br)ccc2nc(-c2ccncc2)n1-c1ccc(-c2csc(O)n2)cc1 | Active | Active |  |  |  | 75.7% | 15 mg/kg | 67.3% | Active | 
Nc1nc(-c2ccc(-n3c(-c4ccncc4)nc4ccc(Br)cc4c3=O)cc2)cs1 | Active | Active |  |  |  |  |  | 62.8% | Active | 
O=C(/C=C/c1ccc([N+](=O)[O-])cc1)c1ccc(-n2c(-c3ccncc3)nc3ccc(Br)cc3c2=O)cc1 | Active | Active |  |  |  |  |  | 70.5% | Active | 22.3 mg/kg
